Measurements: US6737383B1, “Herbicidal oxadiazolidines” (priority 1999, dated 2004)

Legend:
bedstraw = assay: Test B pre/postemergence bedstraw; assay type: in vivo, Galium aparine; conditions: for Bedstraw plant response rating: 10 is complete control
Method in brief: (§1)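 Test chemicals in a non-phytotoxic solvent mixture with surfactant were sprayed preemergence onto planted seeds and postemergence onto plants 2 to 18 cm tall (1- to 4-leaf stage). After twelve to sixteen days in a greenhouse, injury was visually rated against untreated controls from 0 (no effect) to 10 (complete control).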

blackgrass = assay: Test B pre/postemergence blackgrass; assay type: in vivo, Alopecurus myosuroides
Method in brief: as §1

surinam grass = assay: Test B pre/postemergence surinam grass; assay type: in vivo, Brachiaria decumbens
Method in brief: as §1

cocklebur = assay: Test B pre/postemergence cocklebur; assay type: in vivo, Xanthium strumarium
Method in brief: as §1

corn = assay: Test B pre/postemergence corn; assay type: in vivo, Zea mays
Method in brief: as §1

crabgrass = assay: Test B pre/postemergence crabgrass; assay type: in vivo, Digitaria sanguinalis
Method in brief: as §1

giant foxtail = assay: Test B pre/postemergence giant foxtail; assay type: in vivo, Setaria faberii
Method in brief: as §1

morningglory = assay: Test B pre/postemergence morningglory; assay type: in vivo, Ipomoea hederacea
Method in brief: as §1

pigweed = assay: Test B pre/postemergence pigweed; assay type: in vivo, Amaranthus retroflexus
Method in brief: as §1

rape = assay: Test B pre/postemergence rape; assay type: in vivo, Brassica napus
Method in brief: as §1

soybean = assay: Test B pre/postemergence soybean; assay type: in vivo, Glycine max
Method in brief: as §1

sugar beet = assay: Test B pre/postemergence sugar beet; assay type: in vivo, Beta vulgaris
Method in brief: as §1

velvetleaf = assay: Test B pre/postemergence velvetleaf; assay type: in vivo, Abutilon theophrasti
Method in brief: as §1

wheat = assay: Test B pre/postemergence wheat; assay type: in vivo, Triticum aestivum
Method in brief: as §1

wild oat = assay: Test B pre/postemergence wild oat; assay type: in vivo, Avena fatua
Method in brief: as §1

purple nutsedge = assay: Test B pre/postemergence purple nutsedge; assay type: in vivo, Cyperus rotundus
Method in brief: as §1

[1] = Preemergence, Rate 62 g/ha, scale of 0 to 10 where 0 is no effect and 10 is complete control
[2] = Postemergence, Rate 62 g/ha, scale of 0 to 10, 0 is no effect, 10 is complete control
[3] = Postemergence, Rate 125 g/ha, scale 0 to 10, 0 is no effect, 10 is complete control
[4] = Postemergence, Rate 250 g/ha, scale 0 to 10
[5] = Postemergence, Rate 500 g/ha, scale 0 to 10, 0 is no effect, 10 is complete control
[6] = Preemergence, Rate 125 g/ha, scale 0 to 10, 0 is no effect, 10 is complete control
[7] = Preemergence, Rate 250 g/ha, scale 0 to 10, 0 is no effect, 10 is complete control
[8] = Preemergence, Rate 500 g/ha, scale of 0 to 10 where 0 is no effect and 10 is complete control

Compound: CC(C)=CCn1c(=O)on(C(=O)N(c2ccc(F)cc2F)C(C)C)c1=O [Compound 515]
- Bedstraw plant response rating (bedstraw; Postemergence, Rate 62 g/ha, scale of 0 to 10, 0 is no effect): 6
- Bedstraw plant response rating (bedstraw; Postemergence, Rate 125 g/ha, scale 0 to 10, 0 is no effect): 6
- Plant response rating, Bedstraw (bedstraw; [1]): 0
- Bedstraw plant response rating (bedstraw; Preemergence, Rate 125 g/ha, scale 0 to 10, 0 is no effect): 0
- Bedstraw plant response rating (bedstraw; Preemergence, Rate 250 g/ha, scale 0 to 10, 0 is no effect): 0
- Bedstraw plant response rating (bedstraw; Preemergence, Rate 500 g/ha, scale 0 to 10, 0 is no effect): 3
- Blackgrass plant response rating (blackgrass; [2]): 0
- Blackgrass plant response rating (blackgrass; [3]): 0
- Blackgrass plant response rating (blackgrass; [4]): 0
- Plant response rating, Blackgrass (blackgrass; [5]): 1
- Plant response rating, Blackgrass (blackgrass; [1]): 3
- Blackgrass plant response rating (blackgrass; [6]): 5
- Blackgrass plant response rating (blackgrass; [7]): 5
- Blackgrass plant response rating (blackgrass; [8]): 8
- B. signalgrass plant response rating (surinam grass; [2]): 0
- B. signalgrass plant response rating (surinam grass; [3]): 0
- B. signalgrass plant response rating (surinam grass; Postemergence, Rate 250 g/ha, scale 0 to 10, 0 no effect, 10 complete control): 0
- Plant response rating, B. signalgrass (surinam grass; [5]): 3
- Plant response rating, B. signalgrass (surinam grass; [1]): 2
- B. signalgrass plant response rating (surinam grass; [6]): 8
- B. signalgrass plant response rating (surinam grass; [7]): 8
- B. signalgrass plant response rating (surinam grass; Preemergence, Rate 500 g/ha, scale 0 to 10, 0 is no effect, 10 is complete control): 9
- Cocklebur plant response rating (cocklebur; [2]): 0
- Cocklebur plant response rating (cocklebur; [3]): 3
- Cocklebur plant response rating (cocklebur; [4]): 3
- Plant response rating, Cocklebur (cocklebur; [5]): 5
- Plant response rating, Cocklebur (cocklebur; [1]): 0
- Cocklebur plant response rating (cocklebur; [6]): 0
- Cocklebur plant response rating (cocklebur; [7]): 0
- Cocklebur plant response rating (cocklebur; [8]): 0
- Corn plant response rating (corn; [2]): 0
- Corn plant response rating (corn; [3]): 0
- Corn plant response rating (corn; [4]): 0
- Plant response rating, Corn (corn; [5]): 0
- Plant response rating, Corn (corn; [1]): 0
- Corn plant response rating (corn; [6]): 0
- Corn plant response rating (corn; [8]): 5
- Crabgrass plant response rating (crabgrass; [2]): 4
- Crabgrass plant response rating (crabgrass; [3]): 8
- Crabgrass plant response rating (crabgrass; [4]): 9
- Plant response rating, Crabgrass (crabgrass; [5]): 9
- Plant response rating, Crabgrass (crabgrass; [1]): 6
- Crabgrass plant response rating (crabgrass; [6]): 7
- Crabgrass plant response rating (crabgrass; [8]): 9
- Giant foxtail plant response rating (giant foxtail; [2]): 8
- Giant foxtail plant response rating (giant foxtail; [3]): 9
- Plant response rating, Giant foxtail (giant foxtail; [5]): 9
- Plant response rating, Giant foxtail (giant foxtail; [1]): 10
- Giant foxtail plant response rating (giant foxtail; [6]): 10
- Giant foxtail plant response rating (giant foxtail; [8]): 10
- Morningglory plant response rating (morningglory; [2]): 2
- Morningglory plant response rating (morningglory; [3]): 2
- Plant response rating, Morningglory (morningglory; [5]): 6
- Plant response rating, Morningglory (morningglory; [1]): 0
- Morningglory plant response rating (morningglory; [6]): 0
- Morningglory plant response rating (morningglory; [8]): 0
- Redroot pigweed plant response rating (pigweed; [2]): 3
- Redroot pigweed plant response rating (pigweed; [3]): 4
- Plant response rating, Redroot pigweed (pigweed; [5]): 5
- Plant response rating, Redroot pigweed (pigweed; [1]): 8
- Redroot pigweed plant response rating (pigweed; [6]): 9
- Redroot pigweed plant response rating (pigweed; [8]): 10
- Rape plant response rating (rape; [2]): 4
- Rape plant response rating (rape; [3]): 4
- Plant response rating, Rape (rape; [5]): 6
- Plant response rating, Rape (rape; [1]): 0
- Rape plant response rating (rape; [6]): 4
- Rape plant response rating (rape; [8]): 10
- Soybean plant response rating (soybean; [2]): 4
- Soybean plant response rating (soybean; [3]): 4
- Plant response rating, Soybean (soybean; [5]): 7
- Plant response rating, Soybean (soybean; [1]): 0
- Soybean plant response rating (soybean; [6]): 0
- Soybean plant response rating (soybean; [8]): 0
- Sugarbeets plant response rating (sugar beet; [2]): 3
- Sugarbeets plant response rating (sugar beet; [3]): 3
- Plant response rating, Sugarbeets (sugar beet; [5]): 3
- Plant response rating, Sugarbeets (sugar beet; [1]): 0
- Sugarbeets plant response rating (sugar beet; [6]): 4
- Sugarbeets plant response rating (sugar beet; [8]): 7
- Velvetleaf plant response rating (velvetleaf; [2]): 2
- Velvetleaf plant response rating (velvetleaf; [3]): 4
- Plant response rating, Velvetleaf (velvetleaf; [5]): 8
- Plant response rating, Velvetleaf (velvetleaf; [1]): 0
- Velvetleaf plant response rating (velvetleaf; [6]): 0
- Velvetleaf plant response rating (velvetleaf; [8]): 6
- Wheat plant response rating (wheat; [2]): 0
- Wheat plant response rating (wheat; [3]): 0
- Plant response rating, Wheat (wheat; [5]): 0
- Plant response rating, Wheat (wheat; [1]): 0
- Wheat plant response rating (wheat; [6]): 0
- Wheat plant response rating (wheat; [8]): 7
- Wild oats plant response rating (wild oat; [2]): 0
- Wild oats plant response rating (wild oat; [3]): 0
- Plant response rating, Wild oats (wild oat; [5]): 0
- Plant response rating, Wild oats (wild oat; [1]): 3
- Wild oats plant response rating (wild oat; [6]): 5
- Wild oats plant response rating (wild oat; [8]): 9
- Nutsedge plant response rating (purple nutsedge; [2]): 0
- Nutsedge plant response rating (purple nutsedge; [3]): 0
- Plant response rating, Nutsedge (purple nutsedge; [5]): 0
- Plant response rating, Nutsedge (purple nutsedge; [1]): 0
- Nutsedge plant response rating (purple nutsedge; [6]): 0
- Nutsedge plant response rating (purple nutsedge; [8]): 0
